Source: publication PMC10377601, “Side Chain-Modified Benzothiazinone Derivatives with Anti-Mycobacterial Activity” (Biomedicines, 2023)

Experiments:
[1] = system: Mycobacterium tuberculosis; set-up: method as in PMID 24500695; conditions: whole-cell activity; cited from earlier work
M. tuberculosis H37Rv = assay: MIC determination by microplate alamar blue assay (MABA); type: cell-based; conditions: Mycobacterium tuberculosis
[2] = molecular target: T1, recombinant M. tuberculosis DprE1 enzyme (Mycobacterium tuberculosis, UniProt P9WJF1); assay: DprE1 inhibition, Amplex Red/peroxidase coupled assay; type: biochemical; conditions: Mtb DprE1
T1 construct: made in house; host or cells: E. coli
T1 sequence (P9WJF1 whole entry): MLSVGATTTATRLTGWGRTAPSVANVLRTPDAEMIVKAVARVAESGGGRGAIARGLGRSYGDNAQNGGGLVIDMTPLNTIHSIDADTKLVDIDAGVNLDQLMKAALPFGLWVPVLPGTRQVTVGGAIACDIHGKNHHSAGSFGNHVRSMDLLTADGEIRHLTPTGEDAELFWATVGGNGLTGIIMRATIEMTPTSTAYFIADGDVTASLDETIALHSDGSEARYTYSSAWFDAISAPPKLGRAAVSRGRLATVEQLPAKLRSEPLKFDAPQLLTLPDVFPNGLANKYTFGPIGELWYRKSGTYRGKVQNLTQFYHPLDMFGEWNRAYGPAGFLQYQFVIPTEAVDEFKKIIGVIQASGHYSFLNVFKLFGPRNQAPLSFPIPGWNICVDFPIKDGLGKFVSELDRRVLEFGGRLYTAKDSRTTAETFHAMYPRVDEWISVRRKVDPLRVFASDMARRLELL

in vitro = in vitro ADME; set-up: dose or concentration left out as unconfirmed; conditions: human, microsomes, pH 7.4
Method: The compounds’ metabolic stability were determined in human liver microsomes. A solution of microsomes (0.2 mg/mL) containing the compounds […], NADPH (1 mM), and phosphate buffer (100 mM, pH 7.4) were prepared. Pre-incubation was conducted at 37 °C for 10 min. There was addition of 50 µL and 5 mM NADPH to initiate the reaction. At 5, 15, 30, 60, or 120 min, 30 µL of reaction solution was taken out and quenched with 300 µL internal standard tolbutamide (10 ng/mL) in cold CH3CN. The mixture was centrifuged at 6000 rpm for 15 min at 4 °C. Then, 100 μL supernatant was diluted with 100 uL ultrapure water (Millipore, ZMQS50F01). The solution was analyzed via LC/MS analysis.

C[C@H]1COC2(CCN(c3nc(=O)c4cc(C(F)(F)F)cc([N+](=O)[O-])c4s3)CC2)O1 [BTZ043]
minimal inhibitory concentration (MIC) [1]: lower than 0.004 µM

CN(Cc1cn(C2CCCCC2)nn1)c1nc(=O)c2cc(C(F)(F)F)cc([N+](=O)[O-])c2s1 [Compound 1, 2-{[(1-cyclohexyl-1H-1,2,3-triazol-4-yl)methyl](methyl)amino}-BTZ]
MIC (M. tuberculosis H37Rv; 168 h, Mtb H37Rv, MABA): 0.032 µM
MIC (M. tuberculosis H37Rv; Mtb H37Rv, MABA): 0.032 µM

CN(Cc1cn(-c2ccncc2)nn1)c1nc(=O)c2cc(C(F)(F)F)cc([N+](=O)[O-])c2s1 [Compound 5]
MIC (M. tuberculosis H37Rv; Mtb H37Rv, MABA): 0.047 µM

CN(Cc1cn(-c2cccnc2)nn1)c1nc(=O)c2cc(C(F)(F)F)cc([N+](=O)[O-])c2s1 [Compound 6]
MIC (M. tuberculosis H37Rv; Mtb H37Rv, MABA): 0.17 µM

CN(Cc1cn(-c2ccc(-c3ccccc3)cc2)nn1)c1nc(=O)c2cc(C(F)(F)F)cc([N+](=O)[O-])c2s1 [Compound 7]
MIC (M. tuberculosis H37Rv; Mtb H37Rv, MABA): 0.44 µM

CN(Cc1cn(-c2ccc3ccccc3c2)nn1)c1nc(=O)c2cc(C(F)(F)F)cc([N+](=O)[O-])c2s1 [Compound 8]
MIC (M. tuberculosis H37Rv; Mtb H37Rv, MABA): 0.057 µM

CN(Cc1cn(-c2cccc3ccccc23)nn1)c1nc(=O)c2cc(C(F)(F)F)cc([N+](=O)[O-])c2s1 [Compound 9]
MIC (M. tuberculosis H37Rv; Mtb H37Rv, MABA): 0.217 µM

CN(Cc1cn(-c2ccc(F)cc2)nn1)c1nc(=O)c2cc(C(F)(F)F)cc([N+](=O)[O-])c2s1 [Compound 12]
MIC (M. tuberculosis H37Rv; 168 h, Mtb H37Rv, MABA): 0.012 µM
MIC (M. tuberculosis H37Rv; Mtb H37Rv, MABA): 0.012 µM

CN(Cc1cn(-c2cccc(F)c2)nn1)c1nc(=O)c2cc(C(F)(F)F)cc([N+](=O)[O-])c2s1 [Compound 13]
MIC (M. tuberculosis H37Rv; 168 h, Mtb H37Rv, MABA): 0.008 µM
MIC (M. tuberculosis H37Rv; Mtb H37Rv, MABA): 0.008 µM

CN(Cc1cn(-c2ccccc2F)nn1)c1nc(=O)c2cc(C(F)(F)F)cc([N+](=O)[O-])c2s1 [Compound 14]
MIC (M. tuberculosis H37Rv; 168 h, Mtb H37Rv, MABA): 0.27 µM
MIC (M. tuberculosis H37Rv; Mtb H37Rv, MABA): 0.27 µM

CN(Cc1cn(-c2cccc(Cl)c2)nn1)c1nc(=O)c2cc(C(F)(F)F)cc([N+](=O)[O-])c2s1 [Compound 15]
MIC (M. tuberculosis H37Rv; 168 h, Mtb H37Rv, MABA): 0.014 to 0.207 µM
MIC (M. tuberculosis H37Rv; Mtb H37Rv, MABA): 0.014 µM

CN(Cc1cn(-c2cccc(Br)c2)nn1)c1nc(=O)c2cc(C(F)(F)F)cc([N+](=O)[O-])c2s1 [Compound 16]
MIC (M. tuberculosis H37Rv; 168 h, Mtb H37Rv, MABA): 0.014 to 0.207 µM
MIC (M. tuberculosis H37Rv; Mtb H37Rv, MABA): 0.055 µM

CN(Cc1cn(-c2cccc(I)c2)nn1)c1nc(=O)c2cc(C(F)(F)F)cc([N+](=O)[O-])c2s1 [Compound 17]
MIC (M. tuberculosis H37Rv; 168 h, Mtb H37Rv, MABA): 0.014 to 0.207 µM
MIC (M. tuberculosis H37Rv; Mtb H37Rv, MABA): 0.133 µM

COc1cccc(-n2cc(CN(C)c3nc(=O)c4cc(C(F)(F)F)cc([N+](=O)[O-])c4s3)nn2)c1 [Compound 18]
MIC (M. tuberculosis H37Rv; 168 h, Mtb H37Rv, MABA): 0.014 to 0.207 µM
MIC (M. tuberculosis H37Rv; Mtb H37Rv, MABA): 0.12 µM

Cc1cccc(-n2cc(CN(C)c3nc(=O)c4cc(C(F)(F)F)cc([N+](=O)[O-])c4s3)nn2)c1 [Compound 19, 2-{methyl[1-(m-tolyl)-1H-1,2,3-triazol-4-yl](methyl)amino}-BTZ]
MIC (M. tuberculosis H37Rv; 168 h, Mtb H37Rv, MABA): 0.014 to 0.207 µM
MIC (M. tuberculosis H37Rv; Mtb H37Rv, MABA): 0.061 µM

CN(Cc1cn(-c2cccc(C(F)(F)F)c2)nn1)c1nc(=O)c2cc(C(F)(F)F)cc([N+](=O)[O-])c2s1 [Compound 20]
MIC (M. tuberculosis H37Rv; 168 h, Mtb H37Rv, MABA): 0.014 to 0.207 µM
MIC (M. tuberculosis H37Rv; Mtb H37Rv, MABA): 0.04 µM

CN(Cc1cn(-c2cccc(C#N)c2)nn1)c1nc(=O)c2cc(C(F)(F)F)cc([N+](=O)[O-])c2s1 [Compound 21, 3-{4-[(methyl(8-nitro-4-oxo-6-(trifluoromethyl)-4H-benzo[e][1,3]thiazin-2-yl)amino)methyl)-1H-1,2,3-triazol-1-yl)benzonitrile]
MIC (M. tuberculosis H37Rv; 168 h, Mtb H37Rv, MABA): 0.014 to 0.207 µM
MIC (M. tuberculosis H37Rv; Mtb H37Rv, MABA): 0.207 µM

CN(Cc1cn(-c2ccc(F)c(F)c2)nn1)c1nc(=O)c2cc(C(F)(F)F)cc([N+](=O)[O-])c2s1 [Compound 22]
MIC (M. tuberculosis H37Rv; 168 h, Mtb H37Rv, MABA): < 0.023 µM
MIC (M. tuberculosis H37Rv; Mtb H37Rv, MABA): 0.014 µM

CN(Cc1cn(-c2cc(F)cc(F)c2)nn1)c1nc(=O)c2cc(C(F)(F)F)cc([N+](=O)[O-])c2s1 [Compound 23]
MIC (M. tuberculosis H37Rv; 168 h, Mtb H37Rv, MABA): < 0.023 µM
MIC (M. tuberculosis H37Rv; Mtb H37Rv, MABA): 0.016 µM

CN(Cc1cn(-c2c(F)cccc2F)nn1)c1nc(=O)c2cc(C(F)(F)F)cc([N+](=O)[O-])c2s1 [Compound 24]
MIC (M. tuberculosis H37Rv; Mtb H37Rv, MABA): 0.259 µM
IC50 [2]: 7200 nM

CN(Cc1cn(-c2ccc(F)cc2F)nn1)c1nc(=O)c2cc(C(F)(F)F)cc([N+](=O)[O-])c2s1 [Compound 25]
MIC (M. tuberculosis H37Rv; Mtb H37Rv, MABA): 0.023 µM

CN(Cc1cn(-c2ccc(Cl)c(Cl)c2)nn1)c1nc(=O)c2cc(C(F)(F)F)cc([N+](=O)[O-])c2s1 [Compound 26]
MIC (M. tuberculosis H37Rv; H37Rv, Table S1): 4 ng/mL
MIC (M. tuberculosis H37Rv; Mtb H37Rv, MABA): 0.036 µM
IC50 [2]: 20 nM

CN(Cc1cn(-c2ccc(F)c(Br)c2)nn1)c1nc(=O)c2cc(C(F)(F)F)cc([N+](=O)[O-])c2s1 [Compound 27]
MIC (M. tuberculosis H37Rv; H37Rv, Table S1): 129 ng/mL
MIC (M. tuberculosis H37Rv; Mtb H37Rv, MABA): 0.055 µM
IC50 [2]: 7200 nM

CN(Cc1cn(-c2ccc(F)c(Cl)c2)nn1)c1nc(=O)c2cc(C(F)(F)F)cc([N+](=O)[O-])c2s1 [Compound 28]
MIC (M. tuberculosis H37Rv; H37Rv, Table S1): 8 ng/mL
MIC (M. tuberculosis H37Rv; Mtb H37Rv, MABA): 0.029 µM
IC50 [2]: 41 nM

CN(Cc1cn(-c2ccc(Cl)cc2Cl)nn1)c1nc(=O)c2cc(C(F)(F)F)cc([N+](=O)[O-])c2s1 [Compound 29]
MIC (M. tuberculosis H37Rv; H37Rv, Table S1): 4 ng/mL
MIC (M. tuberculosis H37Rv; Mtb H37Rv, MABA): 0.023 µM
IC50 [2]: 24 nM

CN(Cc1cn(-c2cc(Cl)cc(Cl)c2)nn1)c1nc(=O)c2cc(C(F)(F)F)cc([N+](=O)[O-])c2s1 [Compound 30]
MIC (M. tuberculosis H37Rv; H37Rv, Table S1): 6 ng/mL
MIC (M. tuberculosis H37Rv; Mtb H37Rv, MABA): 0.047 µM
IC50 [2]: 90 nM

CN(Cc1coc(-c2ccccc2)n1)c1nc(=O)c2cc(C(F)(F)F)cc([N+](=O)[O-])c2s1 [Compound 31, 2-{methyl[(2-phenyloxazol-4-yl)methyl]amino}-BTZ]
MIC (M. tuberculosis H37Rv; H37Rv, Table S1): 13 ng/mL
MIC (M. tuberculosis H37Rv; Mtb H37Rv, MABA): 0.006 µM
CLint scaled (in vitro): 51.7 mL/min/kg
half-life (in vitro): 33.6 min
IC50 [2]: 220 nM

CN(Cc1coc(-c2ccc(F)cc2)n1)c1nc(=O)c2cc(C(F)(F)F)cc([N+](=O)[O-])c2s1 [Compound 32]
MIC (M. tuberculosis H37Rv; H37Rv, Table S1): 16 ng/mL
MIC (M. tuberculosis H37Rv; Mtb H37Rv, MABA): 0.006 µM
IC50 [2]: 750 nM

CN(Cc1coc(-c2cccc(F)c2)n1)c1nc(=O)c2cc(C(F)(F)F)cc([N+](=O)[O-])c2s1 [Compound 33]
MIC (M. tuberculosis H37Rv; H37Rv, Table S1): 3 ng/mL
MIC (M. tuberculosis H37Rv; Mtb H37Rv, MABA): 0.021 µM
IC50 [2]: 74 nM

CN(Cc1csc(-c2ccccc2)n1)c1nc(=O)c2cc(C(F)(F)F)cc([N+](=O)[O-])c2s1 [Compound 34, 2-{methyl[(2-phenylthiazol-4-yl)methyl]amino}-BTZ]
MIC (M. tuberculosis H37Rv; 168 h, Mtb H37Rv, MABA): 0.015 µM
MIC (M. tuberculosis H37Rv; H37Rv, Table S1): 3 ng/mL
MIC (M. tuberculosis H37Rv; Mtb H37Rv, MABA): 0.015 µM
CLint scaled (in vitro): 71.6 mL/min/kg
half-life (in vitro): 24.3 min
IC50 [2]: 69 nM

CN(Cc1csc(-c2cccc(F)c2)n1)c1nc(=O)c2cc(C(F)(F)F)cc([N+](=O)[O-])c2s1 [Compound 35]
MIC (M. tuberculosis H37Rv; 168 h, Mtb H37Rv, MABA): 0.032 µM
MIC (M. tuberculosis H37Rv; H37Rv, Table S1): 7 ng/mL
MIC (M. tuberculosis H37Rv; Mtb H37Rv, MABA): 0.032 µM
IC50 [2]: 65 nM

CN(Cc1csc(-c2ccc(F)cc2)n1)c1nc(=O)c2cc(C(F)(F)F)cc([N+](=O)[O-])c2s1 [Compound 36, 2-{[(2-(4-fluorophenyl)thiazol-4-yl)methyl](methyl)amino}-BTZ]
MIC (M. tuberculosis H37Rv; 168 h, Mtb H37Rv, MABA): 0.034 µM
MIC (M. tuberculosis H37Rv; Mtb H37Rv, MABA): 0.034 µM
CLint scaled (in vitro): 25.5 mL/min/kg
half-life (in vitro): 68.2 min

CN(Cc1nnc(-c2cccc(F)c2)o1)c1nc(=O)c2cc(C(F)(F)F)cc([N+](=O)[O-])c2s1 [Compound 38]
MIC (M. tuberculosis H37Rv; Mtb H37Rv, MABA): 0.006 µM

CN(Cc1nnc(-c2ccc(F)cc2)o1)c1nc(=O)c2cc(C(F)(F)F)cc([N+](=O)[O-])c2s1 [Compound 39]
MIC (M. tuberculosis H37Rv; Mtb H37Rv, MABA): 0.006 µM

CN(Cc1nnc(-c2ccccc2)s1)c1nc(=O)c2cc(C(F)(F)F)cc([N+](=O)[O-])c2s1 [Compound 40, 2-{methyl[(5-phenyl-1,3,4-thiadiazol-2-yl)methyl]amino}-BTZ]
MIC (M. tuberculosis H37Rv; Mtb H37Rv, MABA): 0.033 µM
CLint scaled (in vitro): 50.7 mL/min/kg
half-life (in vitro): 34.3 min

CN(Cc1nnc(-c2cccc(F)c2)s1)c1nc(=O)c2cc(C(F)(F)F)cc([N+](=O)[O-])c2s1 [Compound 41]
MIC (M. tuberculosis H37Rv; Mtb H37Rv, MABA): 0.024 µM

CN(Cc1nnc(-c2ccc(F)cc2)s1)c1nc(=O)c2cc(C(F)(F)F)cc([N+](=O)[O-])c2s1 [Compound 42]
MIC (M. tuberculosis H37Rv; Mtb H37Rv, MABA): 0.026 µM
